Values after ≈ are worked out from the molar mass of the structure shown. Like-named read-outs stand apart in the source and are kept apart here.

The source of these data is patent US10894085B2, “System for thermotherapy treatment or prevention of antimicrobial resistant or biofilm infections” (FUNDACIÓ HOSPITAL UNIVERSITARI VALL D'HEBRON—INSTITUT DE …, priority 2016, dated 2021).

What all share (type): cell-based
The subject of assay [1] is Klebsiella pneumoniae strains. The experiment in a line: Antibiotic susceptibility (CLSI category) of K. pneumoniae clinical isolates. For Antibiotic susceptibility and clinical category (CLSI breakpoint): key: S, susceptible; R, resistant; I, intermediate.
Assay [2] concerns Pseudomonas aeruginosa strains. The experiment in a line: Susceptibility (MIC, CLSI category) of P. aeruginosa clinical isolates. For clinical category (CLSI breakpoint): key: S, susceptible; R, resistant; I, intermediate. To be noted: for MIC: Pseudomonas aeruginosa, read-out: MIC.
The test system of assay [3] is Acinetobacter baumannii isogenic strains. Nature of the assay: microbe, parasite or virus in culture. To be noted: for MIC: Acinetobacter baumannii.
Assay [4] has as its system P. aeruginosa. The experiment in a line: MIC by broth microdilution (Table 4), P. aeruginosa. To be noted: Pseudomonas aeruginosa. The protocol:
(§1) The minimum inhibitory concentration (MIC) values were determined by broth microdilution method according to “Methods for Dilution Antimicrobial Susceptibility Tests for Bacteria That Grow Aerobically: Approved Standard M7-A7. CLSI, Wayne, Pa., USA, 2006” Colistin and amikacin free drugs were evaluated to compare the efficacy of nanoparticles. MIC was evaluated in Pa46, Pa1016, Kp1, Kp4, Abl4, Ab4256, MRSA 15, MRSA 16, SE14 an SE94 strains. ATCC P. aeruginosa 27853, ATCC E. coli 25922 and ATCC A. baumannii 19606 were used as quality control.

Assay [5] relates to K. pneumoniea. Nature of the assay: MIC by broth microdilution (Table 4), K. pneumoniae. The note with it: Klebsiella pneumoniae. On the procedure:
as §1
A general note: In broth dilution the organism is exposed to a series of concentrations in liquid medium.

In assay [6] the test system is A. baumannii. The experiment in a line: MIC by broth microdilution (Table 4), A. baumannii. To be noted: Acinetobacter baumannii. On the procedure: as §1
The test system of assay [7] is methicillin-resistant S. aureus. Nature of the assay: MIC by broth microdilution (Table 4), MRSA. The protocol: as §1
Assay [8] relates to S. epidermidis. Nature of the assay: MIC by broth microdilution (Table 4), S. epidermidis. To be noted: Staphylococcus epidermidis. On the procedure: as §1
Where [9] appears, read: strain Kp1 (XDR, CTX-M, OXA-48).
The mark [10] stands for this setting: strain Pa46 (ST111, XDR, VIM-2).
Where [11] appears, read: strain Pa54 (ST111, XDR, VIM-2).
Setting [12] is: read-out: MIC values, strain Abl4 (ST2).
The mark [13] stands for this setting: read-out: MIC values, strain Abl1 (ST103).
[14] abbreviates: read-out: MIC values, strain Abl4256 (ST38).

`CC1(C)S[C@@H]2[C@H](NC(=O)[C@H](N)c3ccccc3)C(=O)N2[C@H]1C(=O)O` [AMP, ampicillin]: the “Antibiotic susceptibility and clinical category (CLSI breakpoint)” value in assay [1] (setting [9]) is given as “R”; in assay [1] (strain Kp2 (XDR, CTX-M, NDM)), “R”; in assay [1] (strain Kp3 (XDR, KPC)), “R”; in assay [1] (strain Kp4 (XDR, AmpC)), “R”.
With `C[C@H]1[C@H](NC(=O)/C(=N\OC(C)(C)C(=O)O)c2csc(N)n2)C(=O)N1S(=O)(=O)O` [ATM, aztreonam], the MIC in assay [2] (setting [10]) is 16 µg/mL (≈ 36.7 µM); in assay [2] (setting [11]) it was 32 µg/mL (≈ 73.5 µM); in assay [2] (strain Pa1016 (ST175, XDR)), 32 µg/mL (≈ 73.5 µM).
Consider `NCC[C@H](O)C(=O)N[C@@H]1C[C@H](N)[C@@H](O[C@H]2O[C@H](CN)[C@@H](O)[C@H](O)[C@H]2O)[C@H](O)[C@H]1O[C@H]1O[C@H](CO)[C@@H](O)[C@H](N)[C@H]1O` [Amikacin, amikacin], for which the MIC in assay [2] (setting [10]) was 16 µg/mL (≈ 27.3 µM); in assay [2] (setting [11]) it was 16 µg/mL (≈ 27.3 µM); in assay [2] (strain Pa1016 (ST175, XDR)), 2 µg/mL (≈ 3.42 µM); in assay [3] (setting [12]), not above 2 µg/mL; in assay [4] (strain Pa46, read-out: MIC), 8 µg/mL (≈ 13.7 µM); in assay [4] (strain Pa1016, read-out: MIC), 0.5 µg/mL (≈ 0.854 µM). In addition, the MIC in assay [5] (strain Kp1, read-out: MIC) is 2 µg/mL (≈ 3.42 µM); in assay [5] (strain Kp4, read-out: MIC), 1 to 2 µg/mL (≈ 1.71 to 3.42 µM); in assay [6] (strain Ab4256, read-out: MIC) it was 8 µg/mL (≈ 13.7 µM); in assay [6] (strain Abl4, read-out: MIC), 1 µg/mL (≈ 1.71 µM); in assay [7] (Staphylococcus aureus, strain MRSA15, read-out: MIC), 8 to 16 µg/mL (≈ 13.7 to 27.3 µM); in assay [7] (strain MRSA16), 8 to 16 µg/mL. Moreover, the MIC in assay [8] (strain SE14, read-out: MIC) is 1 to 2 µg/mL (≈ 1.71 to 3.42 µM); in assay [8] (strain SE94, read-out: MIC) it was 1 µg/mL (≈ 1.71 µM). The “clinical category (CLSI breakpoint)” value in assay [2] (strain Pa46), in assay [2] (strain Pa54) and in assay [2] (strain Pa1016) was “S” in each case. Further, the “susceptibility” value in assay [2] (strain Pa46), in assay [2] (strain Pa54), in assay [2] (strain Pa1016), in assay [1] (strain Kp1), in assay [1] (strain Kp4) and in assay [3] (strain Abl4 (ST2)) was “susceptible” throughout. The “Antibiotic susceptibility and clinical category (CLSI breakpoint)” value in assay [1] (setting [9]) was “S”; in assay [1] (strain Kp2 (XDR, CTX-M, NDM)), “R”; in assay [1] (strain Kp3 (XDR, KPC)) it was “R”; in assay [1] (strain Kp4 (XDR, AmpC)), “S”.
`CC(C)(O/N=C(\C(=O)N[C@@H]1C(=O)N2C(C(=O)[O-])=C(C[n+]3ccccc3)CS[C@H]12)c1csc(N)n1)C(=O)O` [CAZ, ceftazidime]: the “Antibiotic susceptibility and clinical category (CLSI breakpoint)” value was “R” in assay [1] (setting [9]); “R” in assay [1] (strain Kp2 (XDR, CTX-M, NDM)); “R” in assay [1] (strain Kp3 (XDR, KPC)); “R” in assay [1] (strain Kp4 (XDR, AmpC)). For the same compound, the MIC in assay [3] (setting [13]) is not below 64 µg/mL; in assay [3] (setting [12]) it was not below 64 µg/mL; in assay [3] (setting [14]) it was less than 8 µg/mL.
`CO/N=C(\C(=O)N[C@@H]1C(=O)N2C(C(=O)[O-])=C(C[N+]3(C)CCCC3)CS[C@H]12)c1csc(N)n1` [FEP, cefepime]: the “Antibiotic susceptibility and clinical category (CLSI breakpoint)” value in assay [1] (setting [9]) is given as “R”; in assay [1] (strain Kp2 (XDR, CTX-M, NDM)) it was “R”; in assay [1] (strain Kp3 (XDR, KPC)) it was “R”; in assay [1] (strain Kp4 (XDR, AmpC)), “R”. Further, the MIC in assay [3] (setting [13]) was not below 64 µg/mL; in assay [3] (setting [12]), not below 64 µg/mL; in assay [3] (setting [14]) it was 16 µg/mL (≈ 33.3 µM).
Turning to `C[C@@H]1O[C@@H]1P(=O)(O)O` [FOS, fosfomycin], the “susceptibility” value in assay [1] (strain Kp1) and in assay [1] (strain Kp2) was “susceptible” in each case. The “Antibiotic susceptibility and clinical category (CLSI breakpoint)” value in assay [1] (setting [9]) is on record as “S”; in assay [1] (strain Kp2 (XDR, CTX-M, NDM)), “S”; in assay [1] (strain Kp3 (XDR, KPC)) it was “R”; in assay [1] (strain Kp4 (XDR, AmpC)) it was “R”.
In the case of `C[C@@H](O)[C@H]1C(=O)N2C(C(=O)O)=C(SCCN=CN)C[C@H]12` [IMP, imipenem], the MIC in assay [2] (setting [10]) was 256 µg/mL (≈ 855 µM); in assay [2] (setting [11]), 256 µg/mL (≈ 855 µM); in assay [2] (strain Pa1016 (ST175, XDR)), 16 µg/mL (≈ 53.4 µM); in assay [3] (setting [13]), not below 16 µg/mL; in assay [3] (setting [12]) it was not below 16 µg/mL; in assay [3] (setting [14]), 64 µg/mL (≈ 214 µM). For the same compound, the “Antibiotic susceptibility and clinical category (CLSI breakpoint)” value is “R” in assay [1] (setting [9]); “R” in assay [1] (strain Kp2 (XDR, CTX-M, NDM)); “R” in assay [1] (strain Kp3 (XDR, KPC)); “R” in assay [1] (strain Kp4 (XDR, AmpC)).
